Laboratory results: patent EP0036436A1, “Methyl 11alpha,15R-dihydroxy-16,18-methano-16-methyl-9-oxoprost-13E-en-1-oate, a process for its production and composition containing it” (MILES LABORATORIES, INC., priority 1980, dated 1981)
Several values for one entry are separate records, joined by “and”; a condition that tells them apart may be missing. Identical values can stand only once.

Assays:
[1] = tested on: tracheobronchial tract; experiment: irritancy to the tracheobronchial tract: 10 minute aerosol challenge in conscious cats; format: in vivo; conditions: for Cough / %ΔRR = percent change in respiratory rate: conscious cats, 10 minute aerosol challenge; for times less potent an irritant than PGE1: computer program of relative potencies on the data of Tables I and II, PGE1 as standard
Method: PGE1 and the test compounds were dissolved in absolute ethanol to give stock solutions of 10 mg/ml. These stock solutions and an ethanol vehicle were diluted using isotonic saline adjusted with phosphate buffer to pH 7.2.
Specific pathogen free cats (Category III) of either sex from the Laboratory Animals Centre were used. Conscious cats (2-4 kg) were restrained in an adjustable Perspex box with their heads protruding into a separate Perspex chamber with a seal around the neck. The respiratory pattern and rate of each cat was recorded via a Fleisch head pneumotachograph protruding into the top of the chamber. Sound was recorded by a microphone also protruding into the chamber. An aerosol of 1-8µm particle size was generated by a Monaghan 670 Ultrasonic nebulizer and passed to the cat's face via an opening in the front of the chamber. Each cat was challenged initially for 10 minutes with an aerosol of isotonic saline adjusted with phosphate buffer to pH 7.2 plus the appropriate concentration of ethanol. This control challenge was followed by a 10 minute aerosol challenge of the test compound of PGE1 in the appropriate vehicle. This 10 minute challenge period is much greater than the brief period of inhalation likely to be used in man, but it does produce a larger number of coughs and enables us to determine the potency of the analogue relative to PGE1 in producing other unwanted side effects.
Seven days were left between successive challenges to avoid the development of tolerance. Both drugs were tested in 5 cats using a wide range of concentrations of aerosol stock solutions. Each cat was observed during and up to 24 hours after the experiment for other side effects, e.g., sedation, diarrhea, and salivation.

[2] = tested on: human bronchial muscle; experiment: relaxation of the human bronchial muscle relative to PGE1; format: cell-based; conditions: for relative potency to PGE1: relaxation of human bronchial muscle, PGE1 as standard
Method: The compounds prepared as described in Examples I and II, i.e., TR-4681 and TR-4690, were tested to determine their activity in the relaxation of the human bronchial muscle relative to PGE1. […] If potency as a bronchodilator were the only criterion upon which a drug of this type were judged, TR-4690 would be preferred. […] This screen and the results observed in using it to test TR-4681 and TR-4690 are as follows: […]

Compound | Cough ([1]; Conc 100.0 µg/ml) | Cough ([1]; Conc 500.0 µg/ml) | relative potency to PGE1 [2] | times less potent an irritant to the tracheobronchial tract than TR-4690 ([1]; compared with TR-4690) | times less potent an irritant than PGE1 [1] | %ΔRR = percent change in respiratory rate ([1]; Conc 1.0 µg/ml) | Cough ([1]; Conc 1.0 µg/ml) | %ΔRR = percent change in respiratory rate ([1]; Conc 10.0 µg/ml) | Cough ([1]; Conc 10.0 µg/ml) | %ΔRR = percent change in respiratory rate ([1]; Conc 50.0 µg/ml) | Cough ([1]; Conc 50.0 µg/ml) | %ΔRR = percent change in respiratory rate ([1]; Conc 100.0 µg/ml) | %ΔRR = percent change in respiratory rate ([1]; Conc 500.0 µg/ml) | times more potent than TR-4681 as a bronchodilator ([2]; relaxing human bronchial muscle, compared with TR-4681) | times more potent an irritant than TR-4681 ([1]; compared with TR-4681)
CCCCC[C@H](O)/C=C/[C@H]1[C@H](O)CC(=O)[C@@H]1CCCCCCC(=O)O [PGE1, prostaglandin E1] | 33 and 31 | 58 and 63 | – | – | – | – | – | – | – | – | – | – | – | – | –
CCC1CC(C)([C@H](O)/C=C/[C@H]2[C@H](O)CC(=O)[C@@H]2CCCCCCC(=O)OC)C1 (stereo partly drawn) [TR-4681, Methyl 11α,15R-dihydroxy-16,18-methano-16-methyl-9-oxoprost-13E-en-l-oate] | 11 | 14 | 1.33 | twenty-five times less potent | approximately 50 times | 0% | 0 | +3% | 0 | +41% | 16 | +41% | +67% | – | –
COC(=O)CCCCCC[C@H]1C(=O)C[C@@H](O)[C@@H]1/C=C/[C@@H](O)C1(C)CCC1 [TR-4690, Methyl 16,19-cyclo-11α,15R-dihydroxy-16-methyl-20-nor-9-oxoprost-13E-en-l-oate] | 1 | 33 | 3.9 | – | approximately 2 times | +5% | 6 | +11% | 5 | +26% | 15 | +21% | +39% | approximately 3 times | approximately 25 times
